Reference: ChEMBL document CHEMBL6127088, “Novel 2-aminothiazole analogues both as polymyxin E synergist and antimicrobial agent against multidrug-resistant Gram-positive bacteria” (2024)
≈ marks a conversion by molar mass, not a printed value. Calls of active or inactive are those of the source. The calls are words filed in the database; no cut-off is given here.

Columns and labels:
[1] = tested on: Acinetobacter baumannii; experiment: Antimicrobial activity against Acinetobacter baumannii ATCC 19606 incubated for 18 hrs by broth microdilution method; format: functional
[2] = tested on: Acinetobacter baumannii; experiment: Synergistic antimicrobial activity against Acinetobacter baumannii ATCC 19606 assessed as fractional inhibitory concentration index in presence of polymyxin E incubated for 18 to 20 hrs by chequerboard assay; format: functional; settings: time 18-20 hrs
[3] = tested on: Staphylococcus aureus; experiment: Antimicrobial activity against methicillin/ofloxacin-resistant Staphylococcus aureus ATCC 43300 assessed as minimum inhibitory concentration incubated for 18 hrs by broth microdilution method; format: functional
[4] = tested on: Enterococcus faecalis; experiment: Antimicrobial activity against vancomycin-resistant Enterococcus faecalis ATCC 51299 assessed as minimum inhibitory concentration incubated for 18 hrs by broth microdilution method; format: functional
[5] = tested on: Bacillus subtilis; experiment: Antimicrobial activity against Bacillus subtilis ATCC 20678 incubated for 18 hrs by broth microdilution method; format: functional
[6] = tested on: Acinetobacter baumannii; experiment: Antibacterial activity against Acinetobacter baumannii ATCC 19606 infected in female Balb/c mouse model assessed as increase in animal survival at 64 mg/kg, iv administered every 12 hrs and measured for 7 days; format: functional, organism-based
[7] = tested on: Acinetobacter baumannii; experiment: Synergistic antibacterial activity against Acinetobacter baumannii ATCC 19606 infected in female Balb/c mouse model assessed as increase in animal survival at 64 mg/kg, iv administered every 12 hrs in presence of 0.5 mg/kg polymyxin-E and measured for 7 days; format: functional, organism-based
[8] = tested on: Acinetobacter baumannii; experiment: Synergistic antibacterial activity against Acinetobacter baumannii ATCC 19606 assessed as fold change in polymyxin-E MIC at 16 microg/ml incubated for 18 hrs by broth microdilution method relative to polymyxin-E alone; format: functional; settings: dose 16 µg/ml
[9] = tested on: Acinetobacter baumannii; experiment: Synergistic antibacterial activity against Acinetobacter baumannii ATCC 19606 assessed as fold change in polymyxin-E MIC at 2 microg/ml incubated for 18 hrs by broth microdilution method relative to polymyxin-E alone; format: functional; settings: dose 2 µg/ml
[10] = tested on: Bacillus subtilis; experiment: Antibacterial activity against Bacillus subtilis 168 assessed as inhibition of bacterial growth incubated for 18 hrs by broth microdilution method; format: functional
[11] = tested on: Bacillus subtilis; experiment: Antibacterial activity against Bacillus subtilis CMCC(B) 63501 assessed as inhibition of bacterial growth incubated for 18 hrs by broth microdilution method; format: functional
[12] = tested on: Bacillus subtilis; experiment: Antibacterial activity against Bacillus subtilis ATCC 6633 assessed as inhibition of bacterial growth incubated for 18 hrs by broth microdilution method; format: functional
[13] = tested on: Lacticaseibacillus rhamnosus; experiment: Antibacterial activity against Lactobacillus rhamnosus assessed as inhibition of bacterial growth incubated for 18 hrs by broth microdilution method; format: functional
[14] = tested on: Lactiplantibacillus plantarum; experiment: Antibacterial activity against Lactobacillus plantarum assessed as inhibition of bacterial growth incubated for 18 hrs by broth microdilution method; format: functional
[15] = tested on: Enterococcus faecalis; experiment: Antibacterial activity against Enterococcus faecalis ATCC 51299 assessed as inhibition of bacterial growth incubated for 18 hrs by broth microdilution method; format: functional
[16] = tested on: Enterococcus faecalis; experiment: Antibacterial activity against Enterococcus faecalis ATCC 29212 assessed as inhibition of bacterial growth incubated for 18 hrs by broth microdilution method; format: functional
[17] = tested on: Mycolicibacterium smegmatis; experiment: Antibacterial activity against Mycobacterium smegmatis MC 2155 assessed as inhibition of bacterial growth incubated for 18 hrs by broth microdilution method; format: functional
[18] = tested on: Mycolicibacterium smegmatis; experiment: Antibacterial activity against Mycobacterium smegmatis ATCC 704 assessed as inhibition of bacterial growth incubated for 18 hrs by broth microdilution method; format: functional
[19] = tested on: Mycolicibacterium smegmatis; experiment: Antibacterial activity against Mycobacterium smegmatis ARC 700044 assessed as inhibition of bacterial growth incubated for 18 hrs by broth microdilution method; format: functional
[20] = tested on: Listeria monocytogenes; experiment: Antibacterial activity against Listeria monocytogenes assessed as inhibition of bacterial growth incubated for 18 hrs by broth microdilution method; format: functional

SMILES | MIC [1] | fractional inhibitory concentration index (FICI) [2] | MIC [3] | MIC [4] | MIC [5] | Activity [6] | Activity [7] | fold change (FC) [8] | fold change (FC) [9] | MIC [10] | MIC [11] | MIC [12] | MIC [13] | MIC [14] | MIC [15] | MIC [16] | MIC [17] | MIC [18] | MIC [19] | MIC [20]
Fc1ccc(-c2csc(Nc3ccc(C(F)(F)F)cc3)n2)c(F)c1 | > 256 µg/mL | 0.14 | 4 µg/mL (≈ 11.2 µM) | 4 µg/mL (≈ 11.2 µM) | 4 µg/mL (≈ 11.2 µM) | inactive | inactive | 16 | 8 |  |  |  |  |  |  |  |  |  |  | 
CN[C@H](CC(C)C)C(=O)N[C@H]1C(=O)N[C@@H](CC(N)=O)C(=O)N[C@H]2C(=O)N[C@H]3C(=O)N[C@H](C(=O)N[C@H](C(=O)O)c4cc(O)cc(O)c4-c4cc3ccc4O)[C@H](O)c3ccc(c(Cl)c3)Oc3cc2cc(c3O[C@@H]2O[C@H](CO)[C@@H](O)[C@H](O)[C@H]2O[C@H]2C[C@](C)(N)[C@H](O)[C@H](C)O2)Oc2ccc(cc2Cl)[C@H]1O [VANCOMYCIN] |  |  |  | > 256 µg/mL | 1 µg/mL (≈ 0.69 µM) |  |  |  |  | 1 µg/mL (≈ 0.69 µM) | 2 µg/mL (≈ 1.38 µM) | 1 µg/mL (≈ 0.69 µM) | 1 µg/mL (≈ 0.69 µM) | 0.5 µg/mL (≈ 0.345 µM) | 2 µg/mL (≈ 1.38 µM) | 2 µg/mL (≈ 1.38 µM) | 2 µg/mL (≈ 1.38 µM) | 1 µg/mL (≈ 0.69 µM) | 2 µg/mL (≈ 1.38 µM) | 2 µg/mL (≈ 1.38 µM)
